Assays:
[1] = H2S absorption by iron oxalate in oil based mud (interdrill 1.62), GGT analysis (Example 2); details: 400 mg iron oxalate in 15 ml interdrill 1.62 oil based mud, water phase pH 12.5, 1.5 ml solution D
Experimental: In A, B and C iron oxalate was added.
The jar containing the mixture was then shaken. From this mixture a new sample of 1 ml mud was taken out with a syringe. This new sample consisting of 1 ml mud was mixed with 20 ml of water and further analysed in GGT (Garret Gas Train) whereby the mixture was stirred with a magnetic stirrer.
The mud which was used in example 2 was of the type interdrill 1.62 (density of the mud), wherein the pH value in the water phase is 12.5.

[2] = H2S absorption by iron oxalate at low concentrations of H2S, GGT analysis (Example 3); details: low H2S concentration, 200 mg iron oxalate in 15 ml mud, 1.5 ml solution D
Experimental: Measurements at low concentrations of H2S were also carried out.
From this mixture a new sample of 1 ml mud was taken out with a syringe and mixed with 20 ml of water and analysed in GGT (Garret Gas Train) whereby the mixture was stirred with a magnetic stirrer.

O=C([O-])C(=O)[O-].[Fe+2] [iron oxalate, iron(II) oxalate]
Amount of remaining H2S in the mud sample measured by GGT analysis ([1]; ageing 17 hours): 51 ppm
Amount of remaining H2S in the mud sample measured by GGT analysis ([1]; ageing 40 hours): 34 ppm
Amount of remaining H2S in the mud sample measured by GGT analysis ([1]; ageing 64 hours): 57 ppm
Amount of remaining H2S in the mud sample measured by GGT analysis ([2]; ageing 1 hour): 8.5 ppm
Amount of remaining H2S in the mud sample measured by GGT analysis ([2]; ageing 18 hours): 0 ppm
Amount of remaining H2S in the mud sample measured by GGT analysis ([2]; ageing 25 hours): 0 ppm

From patent publication US6365053B1, “Removal of H2S in drilling mud” (Statoil Asa, priority 1998, dated 2002)
